We go through 72 compounds from ChEMBL document CHEMBL3507680, “University of Dundee, Gates Library screen for HepG2 cell viability”.

Each structure is given as a SMILES string.

This data set in a line: Human HepG2 cell viability assay in 384 well format. The settings on record: HepG2 cells, read-out: Inhibition. The format is toxicity, cell-based. Also on record: dose 125 nL, time 70.5 hour; concentration not given beside the values.
For `N#Cc1ccc(OC[C@]23COC[C@H]2CN(Cc2ccoc2)C3)nc1`, the cytotoxicity at 70.5 h turned out to be 0.658%.
As for `Cn1cc(N2CCC3(CCN(C(=O)[C@H]4CCCO4)C3)C2=O)cn1` (some centres not stated), the figure is -7.22%; as for `COC[C@@]12CCO[C@@H]1CCN(C(=O)COc1ccc(C)cc1)C2`, -2.71%.
`Cc1occc1C(=O)N1C[C@@H]2CCCO[C@@H]2[C@H](N(C)Cc2ccco2)C1`: the cytotoxicity at 70.5 h was -0.88%.
The figure for `O=C(c1cocn1)N1CCC[C@]2(C[C@@H](Oc3ncccc3F)CO2)C1` is -5.09%; for `Cc1c(S(=O)(=O)NCC(C)C)cnn1C` it is -14.3%.
As for `Cc1c(Cn2cc(Cl)c(N)n2)cnn1C`, the figure is -13.5%.
Turning to `CCn1ncc(Cn2cc(Cl)c(N)n2)c1C`, the cytotoxicity at 70.5 h was 19.5%.
On to `CC(C(=O)O)n1nc(C(F)(F)F)c(Br)c1C1CC1` (configuration not stated), for which the cytotoxicity at 70.5 h is -14%.
The figure for `O=C(O)C1CCCN1c1nc(C2CC2)cc(C(F)(F)F)n1` (configuration not stated) is 2.63%.
In the case of `O=C(O)C1CCCN1c1nc(-c2ccc(Cl)cc2)cc(C(F)(F)F)n1` (configuration not stated), the cytotoxicity at 70.5 h was -3.11%.
As for `COC(=O)c1ccc(OC)c(Cn2cc(N)cn2)c1`, the figure is -19.2%; as for `CCn1cc(-c2cc(C(F)(F)F)nn2CCC#N)cn1`, -9.49%; as for `Cn1cc(-c2cc(C(F)(F)F)nn2CCC#N)cn1`, 11.5%.
With `CCCn1nc(C)c2c(C(F)F)cc(=O)n(CC(=O)O)c21`, the cytotoxicity at 70.5 h was -8.97%.
Regarding `Cc1nn(CC(=O)O)c2nccc(-c3ccc(F)cc3)c12`, the cytotoxicity at 70.5 h was -8.88%.
Take `O=C(O)Cn1nc(C2CC2)c2c(-c3ccco3)ccnc21`: the cytotoxicity at 70.5 h turned out to be 30.2%.
Turning to `Cc1nn(-c2ccccc2)c2c1c(C(F)F)cc(=O)n2CC(=O)O`, the cytotoxicity at 70.5 h is -9.31%.
The figure for `O=C(O)c1cc(C2CC2)nc2c(Cl)cnn12` is -7.04%; for `COC(=O)c1sc(C(F)(F)F)cc1OC` it is -12.4%; for `COC(=O)c1c(Cl)c(C)nc2onc(C)c12` it is -9.83%.
Take `CCN(Cc1nonc1C)C(=O)c1cnccn1`: the cytotoxicity at 70.5 h is -8.37%.
The figure for `Cn1nnc(NCc2ccc(-c3ccc(Cl)cc3)o2)n1` is -4.59%; for `CCCn1nnc(NCc2ccc(-c3ccc(Br)cc3)o2)n1` it is -11.9%; for `CCn1nnc(NCc2cc(Cl)cc(Cl)c2OC)n1` it is 18.4%.
As for `CCn1nnc(NCc2cc(Br)cc(Br)c2OC)n1`, the figure is -18.9%; as for `CC(=O)Nc1ncc(S(=O)(=O)Nc2ccccc2F)s1`, -9.78%.
Consider `CC(=O)Nc1ncc(S(=O)(=O)Nc2ccc(C)cc2)s1`, for which the cytotoxicity at 70.5 h was -1.08%.
In the case of `COC(=O)c1ccc(NS(=O)(=O)c2cnc(NC(C)=O)s2)cc1`, the cytotoxicity at 70.5 h was -12%.
As for `Cc1cc(NCCCOC(C)C)c2nncn2n1`, the figure is 7.73%; as for `Cc1nn(C)c(C)c1CN1CCNCC1`, -4.45%.
As for `Cc1ccc(NC(=O)Nc2c(O)oc3ccccc3c2=O)cc1`, the cytotoxicity at 70.5 h came to 4.11%.
Regarding `CSc1cccc(NC(=O)Nc2c(O)oc3ccccc3c2=O)c1`, the cytotoxicity at 70.5 h was -11.5%.
The figure for `Cc1c2ncn(CC(=O)N(C)C)c(=O)c2nn1C` is -8.37%.
For `O=c1c2cc3c(cc2nnn1Cc1ccccc1Cl)OCCO3`, the cytotoxicity at 70.5 h is 12.4%.
As for `Cc1nnsc1C(=O)NCCNS(=O)(=O)c1cccs1`, the figure is 6.87%; as for `O=C(c1ccc(Cn2cc(Br)cn2)cc1)N1CCCC1`, 30.7%.
Regarding `CCn1cc(CNC(=O)C(C)C)cn1`, the cytotoxicity at 70.5 h came out at 0.0963%.
The figure for `Cc1c(Br)c(C(=O)NC(C)c2ccccc2)nn1C` (configuration not stated) is -13%.
As for `COCCCNC(=O)C(C)n1cc(Br)cn1` (configuration not stated), the figure is 16.8%; as for `Cc1nn(C)c2c(=O)n(Cc3ccc(C#N)cc3)nnc12`, -10.1%; as for `Cc1nn(C)c2c(NCCn3cccn3)ncnc12`, 5.55%.
For the compound `Cc1nc(NC2CCCC2)c2c(n1)c(C)nn2C`, the cytotoxicity at 70.5 h was -14.9%.
In the case of `Cc1nc(NC2CC(C)(C)NC(C)(C)C2)c2c(n1)c(C)nn2C`, the cytotoxicity at 70.5 h was -18.4%.
As for `Cc1nc(N2CCN(c3ccccc3)CC2)c2c(n1)c(C)nn2C`, the figure is -2.17%.
The figure for `Cc1nc(NCCCn2cccn2)c2c(n1)c(C)nn2C` is -3.99%; for `CCc1nc(NCc2ccccn2)c2c(n1)c(C)nn2C` it is 30.9%; for `Cc1nn(C)c2c(NCCCn3cccn3)nc(C(C)C)nc12` it is 16.2%.
`Cc1nn(C)c2c(=O)n(C(C)C)c(NCCc3ccccc3)nc12`: the cytotoxicity at 70.5 h was 24.5%.
As for `CCCn1c(N2CCCCC2)nc2c(C)nn(C)c2c1=O`, the figure is 15.3%; as for `CCOc1ccc(NC(C)=O)cc1S(=O)(=O)Nc1ccon1`, 4.6%; as for `COc1ccc(NC(C)=O)cc1S(=O)(=O)Nc1ccon1`, -5.66%.
Consider `CC(C)(C)NCc1nn(Cc2ccccc2)nc1-c1ccccc1`, for which the cytotoxicity at 70.5 h is 5.21%.
As for `c1ccc(OCCCNCc2cccs2)nc1`, the figure is 10.1%; as for `Fc1cccc(Cl)c1CNCCCOc1ccccn1`, -3.63%.
As for `Cc1ccc(CNc2n[nH]c(C)n2)cc1`, the figure is -10.9%; as for `COCCNC(=O)[C@@H]1CN(Cc2sccc2C)C[C@H]2OCC[C@H]21`, -2.35%.
As for `Cc1ccc(CN2Cc3c(C(=O)N4CCOCC4)nn(C)c3C2)s1`, the figure is -2.1%.
Turning to `O=C(c1ccccc1)N1CCC[C@]2(C[C@@H](Oc3ncccc3F)CO2)C1`, the cytotoxicity at 70.5 h was 23.2%.
For `O=C(c1cccs1)N1C[C@@H]2OCCN(CC3CCCO3)[C@@H]2C1` (some centres not stated), the cytotoxicity at 70.5 h stood at 1.09%.
Turning to `Cc1nnc(N2CCCC3(CN(Cc4ccc(F)cc4)CCO3)C2)o1` (configuration not stated), the cytotoxicity at 70.5 h was -1.36%.
The figure for `O=C(c1cnoc1)N1CCC[C@]2(C[C@@H](Oc3ccccn3)CO2)C1` is -6.93%.
The figure for `CN(Cc1ccco1)[C@@H]1CN(C(=O)C2CCOCC2)C[C@@H]2CCCO[C@@H]21` is 0.92%; for `c1cc(-c2ccc3nc(C4CCN(CC5CC5)CC4)nn3c2)cs1` it is -8.2%.
The figure for `O=C(C1CCOCC1)N1CCO[C@H]2[C@H](Oc3cccnc3)CC[C@@H]21` is -3.29%.
With `O=C(Cc1cccs1)N1C[C@H]2CN(CC3CCCO3)CC[C@H]2C1` (some centres not stated), the cytotoxicity at 70.5 h was -6.25%.
For the compound `COCCNC(=O)[C@H]1CN(Cc2csc(C)n2)C[C@H]2OCC[C@@H]12`, the cytotoxicity at 70.5 h was -3.29%.
As for `Cn1cc(CN2CCCC23CCN(Cc2nccn2C)CC3)cn1`, the figure is 3.37%.
As for `CN1CC(=O)N(c2ccsc2)CC12CCN(Cc1cnn(C)c1)C2` (configuration not stated), the figure is -0.306%.
As for `COCCN1C[C@@H]2[C@@H](OC)CCN(Cc3ccsc3)[C@@H]2C1`, the figure is -2.68%; as for `CN1CC(=O)N(c2cnn(C)c2)CC12CCN(Cc1cccnc1)C2` (configuration not stated), 0.303%; as for `CO[C@@H]1CCN(Cc2cccc(C)n2)[C@@H]2CN(Cc3ccncc3)C[C@@H]21`, -1.88%.
